Assay results taken from patent publication US20110245249A1, “Heterocyclically Substituted Anilinopyrimidines” (Bayer CropScience AG, priority 2008, published 2011).

Assay: logP by HPLC on reversed-phase columns (EEC Directive 79/831 Annex V.A8)
Format: physicochemical
Conditions: for log p [b]: pH 2.7; for log p [c]: pH 7.8; for log p [a]: pH 2.3
Protocol: The logP values were measured in accordance with EEC Directive 79/831 Annex V.A8 by HPLC (High Performance Liquid Chromatography) on reversed-phase columns (C 18) using the methods below:
[a] The determination was carried out in the acidic range at pH 2.3 using the mobile phases 0.1% aqueous phosphoric acid and acetronitrile linear gradient from 10% acetonitrile to 95% acetronitrile. [b] The LC-MS determination in the acid range was carried out at pH 2.7 using the mobile phases 0.1% aqueous formic acid and acetonitrile (contains 0.1% formic acid) linear gradient from 10% acetonitrile to 95% acetonitrile. [c] The LC-MS determination in the neutral range was carried out at pH 7.8 using the mobile phases 0.001 molar aqueous ammonium bicarbonate solution and acetonitrile linear gradient from 10% acetonitrile to 95% acetonitrile.

2-Chloro-{[5-chloro-4-(cyclopropylamino)pyrimidin-2-yl]amino}benzenecarbaldehyde
logP (pH 2.7) (pH 2.7, LC-MS, 0.1% aqueous formic acid/acetonitrile): 2.68

CC(=O)c1cccc(Nc2ncc(C(F)(F)F)c(NC3CCC3)n2)c1 [1-(3-{[4-(Cyclobutylamino)-5-(trifluoromethyl)pyrimidin-2-yl]amino}phenyl)ethanone]
chromatographic logP (pH 2.7, logP (pH 2.7)): 3.24

CC(=O)c1cccc(Nc2ncc(C(F)(F)F)c(NC3CC3)n2)c1 [1-(3-{[4-(Cyclopropylamino)-5-(trifluoromethyl)pyrimidin-2-yl]amino}phenyl)ethanone]
chromatographic logP (pH 2.7, logP (pH 2.7)): 2.72

CC(=O)c1cccc(Nc2ncc(Cl)c(NC3CC3)n2)c1 [1-(3-{[5-Chloro-4-(cyclopropylamino)pyrimidin-2-yl]amino}phenyl)ethanone]
chromatographic logP (pH 2.7, logP (pH 2.7)): 1.75

CCC(=O)c1cccc(Nc2ncc(Cl)c(NC3CC3)n2)c1 [1-(3-{[5-Chloro-4-(cyclopropylamino)pyrimidin-2-yl]amino}phenyl)propan-1-one]
chromatographic logP (pH 2.7, logP (pH 2.7)): 2.25

CC(=O)c1ccc(Nc2ncc(Cl)c(NC3CC3)n2)cc1 [1-(4-{[5-Chloro-4-(cyclopropylamino)pyrimidin-2-yl]amino}phenyl)ethanone]
chromatographic logP (pH 2.7, logP (pH 2.7)): 1.93

CC(=O)c1cccc(Nc2ncc(C(F)(F)F)c(NCC3CC3)n2)c1 [1-[3-({4-[(Cyclopropylmethyl)amino]-5-(trifluoromethyl)pyrimidin-2-yl}amino)phenyl]-ethanone]
chromatographic logP (pH 2.7, logP (pH 2.7)): 2.77

CC1CC1Nc1nc(Nc2cccc(C=O)c2)ncc1Cl (centres unmarked) [3-((5-Chloro-4-[(2-methylcyclopropyl)amino]pyrimidin-2-yl)amino)benzaldehyde]
chromatographic logP (pH 2.3, logP (pH 2.3)): 2.11

COCC(C)Nc1nc(Nc2cccc(C=O)c2)ncc1Cl (centres unmarked) [3-({5-Chloro-4-[(1-methoxypropan-2-yl)amino]pyrimidin-2-yl}amino)benzenecarbaldehyde]
chromatographic logP (pH 2.7, logP (pH 2.7)): 1.8

O=Cc1cccc(Nc2ncc(Cl)c(NCC(F)(F)F)n2)c1 [3-({5-Chloro-4-[(2,2,2-trifluoroethyl)amino]pyrimidin-2-yl}amino)benzenecarbaldehyde]
chromatographic logP (pH 2.7, logP (pH 2.7)): 2.46

O=Cc1cccc(Nc2ncc(Cl)c(NCC(F)F)n2)c1 [3-({5-Chloro-4-[(2,2-difluoroethyl)amino]pyrimidin-2-yl}amino)benzenecarbaldehyde]
chromatographic logP (pH 2.7, logP (pH 2.7)): 2.01

O=Cc1cccc(Nc2ncc(Cl)c(NCC3CC3)n2)c1 [3-({5-Chloro-4-[(cyclopropylmethyl)amino]pyrimidin-2-yl}amino)benzenecarbaldehyde]
chromatographic logP (pH 2.7, logP (pH 2.7)): 1.94

CN(c1nc(Nc2cccc(C=O)c2)ncc1Cl)C1CC1 [3-({5-Chloro-4-[cyclopropyl(methyl)amino]pyrimidin-2-yl}amino)benzenecarbaldehyde]
chromatographic logP (pH 2.7, logP (pH 2.7)): 2.84

O=Cc1cccc(Nc2ncc(C(F)(F)F)c(NC3CCC3)n2)c1 [3-{[4-(Cyclobutylamino)-5-(trifluoromethyl)pyrimidin-2-yl]amino}benzenecarbaldehyde]
chromatographic logP (pH 2.7, logP (pH 2.7)): 3.26

O=Cc1cccc(Nc2ncc(C(F)(F)F)c(NC3CC3)n2)c1 [3-{[4-(Cyclopropylamino)-5-(trifluoromethyl)pyrimidin-2-yl]amino}benzenecarbaldehyde]
chromatographic logP (pH 2.7, logP (pH 2.7)): 2.73

O=Cc1cccc(Nc2ncc(F)c(NC3CC3)n2)c1 [3-{[4-(Cyclopropylamino)-5-fluoropyrimidin-2-yl]amino}benzenecarbaldehyde]
chromatographic logP (pH 2.7, logP (pH 2.7)): 1.26

O=Cc1cccc(Nc2ncc(I)c(NC3CC3)n2)c1 [3-{[4-(Cyclopropylamino)-5-iodopyrimidin-2-yl]amino}benzenecarbaldehyde]
chromatographic logP (pH 2.7, logP (pH 2.7)): 1.96

Cc1cnc(Nc2cccc(C=O)c2)nc1NC1CC1 [3-{[4-(Cyclopropylamino)-5-methylpyrimidin-2-yl]amino}benzenecarbaldehyde]
chromatographic logP (pH 2.7, logP (pH 2.7)): 1.13

O=Cc1cccc(Nc2ncc(Br)c(NC3CCC3)n2)c1 [3-{[5-Bromo-4-(cyclobutylamino)pyrimidin-2-yl]amino}benzenecarbaldehyde]
chromatographic logP (pH 2.7, logP (pH 2.7)): 2.35

O=Cc1cccc(Nc2ncc(Br)c(NC3CC3)n2)c1 [3-{[5-Bromo-4-(cyclopropylamino)pyrimidin-2-yl]amino}benzenecarbaldehyde]
chromatographic logP (pH 2.7, logP (pH 2.7)): 1.93

O=Cc1cccc(Nc2ncc(Cl)c(NC3CCC3)n2)c1 [3-{[5-Chloro-4-(cyclobutylamino)pyrimidin-2-yl]amino}benzenecarbaldehyde]
chromatographic logP (pH 2.7, logP (pH 2.7)): 2.16

O=Cc1cccc(Nc2ncc(Cl)c(NC3CC3)n2)c1 [3-{[5-Chloro-4-(cyclopropylamino)pyrimidin-2-yl]amino}benzenecarbaldehyde]
chromatographic logP (pH 2.7, logP (pH 2.7)): 1.82

CC(C)Nc1nc(Nc2cccc(C=O)c2)ncc1Cl [3-{[5-Chloro-4-(isopropylamino)pyrimidin-2-yl]amino}benzaldehyde]
chromatographic logP (pH 2.7, logP (pH 2.7)): 1.86

C#CCNc1nc(Nc2cccc(C=O)c2)ncc1Cl [3-{[5-Chloro-4-(prop-2-yn-1-ylamino)pyrimidin-2-yl]amino}benzenecarbaldehyde]
chromatographic logP (pH 2.7, logP (pH 2.7)): 1.74

CC1(C)COC(c2cccc(Nc3ncc(Cl)c(NC4CC4)n3)c2)OC1 [Example 2]
log p [b]: 2.45[b]

CC1OC(c2cccc(Nc3ncc(Cl)c(NC4CC4)n3)c2)OC1C (centres unmarked) [Example 3]
log p [b]: 2.2[b]

SCCOC(OCCS)c1cccc(Nc2ncc(Cl)c(NC3CC3)n2)c1 [Example 4]
log p [b]: 1.36 | log p [c]: 2.03

CCC1COC(c2cccc(Nc3ncc(Cl)c(NC4CC4)n3)c2)O1 (centres unmarked) [Example 7]
log p [b]: 2.29 | log p [c]: 3.48

CC1COC(c2cccc(Nc3ncc(Cl)c(NC4CC4)n3)c2)O1 (centres unmarked) [Example 8]
log p [b]: 1.9[b]

CC1CC(C)OC(c2cccc(Nc3ncc(Cl)c(NC4CC4)n3)c2)O1 (centres unmarked) [Example 9]
log p [b]: 2.26 | log p [c]: 3.51

CC1(c2cccc(Nc3ncc(C(F)(F)F)c(NCC4CC4)n3)c2)OCCO1 [Example 10]
log p [a]: 3.16 | log p [b]: 3.15[b] | log p [c]: 3.79

CC1(c2cccc(Nc3ncc(C(F)(F)F)c(NC4CC4)n3)c2)OCCO1 [Example 11]
log p [b]: 3.03 | log p [c]: 3.46

Brc1cnc(Nc2cccc(C3OCCO3)c2)nc1NC1CC1 [Example 13]
log p [b]: 1.75 | log p [c]: 2.82

Brc1cnc(Nc2cccc(C3OCCCO3)c2)nc1NC1CC1 [Example 15]
log p [c]: 2.97

CC1OC(c2cccc(Nc3ncc(Br)c(NC4CCC4)n3)c2)OC1C (centres unmarked) [Example 17]
log p [b]: 2.67 | log p [c]: 4.12

Clc1cnc(Nc2cccc(C3OCCO3)c2)nc1NCC1CC1 [Example 18]
log p [b]: 1.73 | log p [c]: 3.06

CC1(C)COC(c2cccc(Nc3ncc(Cl)c(NC4CCC4)n3)c2)OC1 [Example 19]
log p [a]: 2.29 | log p [b]: 2.57[b] | log p [c]: 4.13

Brc1cnc(Nc2cccc(C3OCCO3)c2)nc1NC1CCC1 [Example 20]
log p [b]: 2.05 | log p [c]: 3.39

CC1(C)COC(c2cccc(Nc3ncc(Br)c(NC4CCC4)n3)c2)OC1 [Example 21]
log p [b]: 3 | log p [c]: 4.51

CC1(C)COC(c2cccc(Nc3ncc(C(F)(F)F)c(NC4CC4)n3)c2)OC1 [Example 25]
log p [b]: 3.7 | log p [c]: 4.07

CC1(C)COC(c2cccc(Nc3ncc(C(F)(F)F)c(NC4CCC4)n3)c2)OC1 [Example 26]
log p [b]: 4.22 | log p [c]: 4.62

Clc1cnc(Nc2cccc(C3OCC(c4ccccc4)O3)c2)nc1NC1CC1 (centres unmarked) [Example 29]
log p [c]: 3.93[c]

Clc1cnc(Nc2cccc(C3OCCO3)c2)nc1NC1CCC1 [Example 31]
log p [b]: 1.91 | log p [c]: 3.23

Clc1cnc(Nc2cccc(C3OC4COCC4O3)c2)nc1NC1CC1 (centres unmarked) [Example 32]
log p [b]: 1.55[b]

ClCC1COC(c2cccc(Nc3ncc(Cl)c(NC4CC4)n3)c2)O1 (centres unmarked) [Example 33]
log p [a]: 1.85 | log p [b]: 2.19

C=CCOCC1COC(c2cccc(Nc3ncc(Cl)c(NC4CC4)n3)c2)O1 (centres unmarked) [Example 34]
log p [b]: 2.25 | log p [c]: 3.39

Clc1cnc(Nc2cccc(C3SCCCS3)c2)nc1NC1CC1 [Example 35, 5-Chloro-N^4-cyclopropyl-N^2-[3-(1,3-dithian-2-yl)phenyl]pyrimidine-2,4-diamine]
chromatographic logP (pH 2.7, log p [b]): 2.44 | chromatographic logP (pH 2.7, logP (pH 2.7)): 2.44 | chromatographic logP (pH 7.8, log p [c]): 3.65

COc1ccc(OCC2COC(c3cccc(Nc4ncc(Cl)c(NC5CC5)n4)c3)O2)cc1 (centres unmarked) [Example 36]
log p [b]: 2.64 | log p [c]: 3.78

O=[N+]([O-])c1ccccc1C1COC(c2cccc(Nc3ncc(Cl)c(NC4CC4)n3)c2)O1 (centres unmarked) [Example 37]
log p [b]: 2.89 | log p [c]: 4
